In patent US20260207602A1, “EGFR INHIBITORS” (Blueprint Medicines Corporation, priority 2022, published 2026):

What was measured:
[1] = target: T1, EGFR L858R (Homo sapiens, UniProt P00533, L858R); assay: Biochemical EGFR inhibition assay (Caliper mobility shift), EGFR L858R; conditions: biochemical Caliper mobility shift assay, EGFR L858R enzyme; read-out: Enz EGFR L858R IC50
T1 construct: purchased SignalChem E10-122BG
Outline: (§1)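 Peptide phosphorylation by the mutant enzyme is followed at 25 °C with either 1.0 mM ATP or ATP at Km, in HEPES pH 7.5 containing 0.015% Brij-35 and 1.0% DMSO. After 10–20% substrate turnover, 35 mM EDTA ends the reaction and mobility shift quantifies product.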

[2] = target: T2, EGFR (d746-750) (Homo sapiens, UniProt P00533, DEL746-750); assay: Biochemical EGFR inhibition assay (Caliper mobility shift), EGFR (d746-750); conditions: biochemical Caliper mobility shift assay, EGFR Exon 19-del enzyme; read-out: Enz EGFR Exon 19-del IC50
T2 construct: purchased SignalChem E10-122JG
T2 sequence (P00533 with tags, fused parts or gaps DEL746-750 limits assumed): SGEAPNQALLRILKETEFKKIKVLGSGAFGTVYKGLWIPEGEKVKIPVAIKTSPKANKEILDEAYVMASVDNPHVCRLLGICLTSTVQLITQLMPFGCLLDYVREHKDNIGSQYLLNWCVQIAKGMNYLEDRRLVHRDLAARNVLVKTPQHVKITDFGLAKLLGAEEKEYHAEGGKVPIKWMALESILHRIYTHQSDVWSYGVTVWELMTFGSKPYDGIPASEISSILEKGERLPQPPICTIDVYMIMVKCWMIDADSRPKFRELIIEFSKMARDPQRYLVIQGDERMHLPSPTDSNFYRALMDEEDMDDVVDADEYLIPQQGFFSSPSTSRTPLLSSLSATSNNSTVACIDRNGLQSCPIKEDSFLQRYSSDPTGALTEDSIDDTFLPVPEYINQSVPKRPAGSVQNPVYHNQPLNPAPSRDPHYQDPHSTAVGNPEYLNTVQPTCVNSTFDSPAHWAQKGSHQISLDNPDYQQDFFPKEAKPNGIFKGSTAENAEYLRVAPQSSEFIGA
Outline: as §1

[3] = target: intracellular phosphorylation of EGFR (Tyr1068) in PC-9 cells (Homo sapiens, UniProt P00533, DEL746-750); assay: PC-9 pEGFR AlphaLISA assay; assay type: cell-based; conditions: 4 hours incubation, read-out: Phos EGFR PC9 IC50
Sequence of intracellular phosphorylation of EGFR (Tyr1068) in PC-9 cells (P00533 with tags, fused parts or gaps DEL746-750): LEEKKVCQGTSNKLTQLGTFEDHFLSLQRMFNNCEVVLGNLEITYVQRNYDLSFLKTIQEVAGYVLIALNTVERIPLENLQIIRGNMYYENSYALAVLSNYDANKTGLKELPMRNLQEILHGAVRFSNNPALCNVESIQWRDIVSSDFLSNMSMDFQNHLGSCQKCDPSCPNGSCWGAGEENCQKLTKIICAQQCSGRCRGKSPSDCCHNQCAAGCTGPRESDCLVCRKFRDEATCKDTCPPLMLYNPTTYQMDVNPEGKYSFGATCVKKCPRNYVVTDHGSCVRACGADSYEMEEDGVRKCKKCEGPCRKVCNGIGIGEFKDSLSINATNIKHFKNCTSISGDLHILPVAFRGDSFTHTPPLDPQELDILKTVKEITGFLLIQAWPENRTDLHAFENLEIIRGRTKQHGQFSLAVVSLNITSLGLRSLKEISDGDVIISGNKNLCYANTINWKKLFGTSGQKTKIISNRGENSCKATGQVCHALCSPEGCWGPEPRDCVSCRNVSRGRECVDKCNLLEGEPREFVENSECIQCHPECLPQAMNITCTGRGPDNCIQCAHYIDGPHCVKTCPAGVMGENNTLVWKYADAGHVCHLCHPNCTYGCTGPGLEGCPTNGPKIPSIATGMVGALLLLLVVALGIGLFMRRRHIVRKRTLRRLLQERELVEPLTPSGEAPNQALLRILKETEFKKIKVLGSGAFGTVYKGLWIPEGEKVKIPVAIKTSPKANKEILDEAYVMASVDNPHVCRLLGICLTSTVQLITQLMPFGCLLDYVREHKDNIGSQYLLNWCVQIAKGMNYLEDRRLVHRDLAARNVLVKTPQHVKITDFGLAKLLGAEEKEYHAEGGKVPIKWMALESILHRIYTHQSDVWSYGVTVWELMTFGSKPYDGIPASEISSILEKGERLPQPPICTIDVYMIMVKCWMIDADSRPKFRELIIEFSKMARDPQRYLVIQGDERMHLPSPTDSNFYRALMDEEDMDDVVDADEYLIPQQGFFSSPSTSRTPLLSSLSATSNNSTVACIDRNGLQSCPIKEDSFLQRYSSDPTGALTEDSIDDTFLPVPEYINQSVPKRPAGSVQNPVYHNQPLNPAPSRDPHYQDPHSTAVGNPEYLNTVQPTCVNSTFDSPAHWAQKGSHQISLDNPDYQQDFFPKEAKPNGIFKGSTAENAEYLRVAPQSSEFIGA
Outline: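 PC-9 cells (EGFR del746-750) in phenol-free DMEM/10% FBS, adhered overnight, then exposed to 10-point 4-fold compound dilutions for 4 h at 37 °C. Lysates assayed for pEGFR Tyr1068 by AlphaLISA SureFire Ultra; IC50 from percent pEGFR inhibition vs log concentration.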

T1 sequence (P00533 25-1210 L858R): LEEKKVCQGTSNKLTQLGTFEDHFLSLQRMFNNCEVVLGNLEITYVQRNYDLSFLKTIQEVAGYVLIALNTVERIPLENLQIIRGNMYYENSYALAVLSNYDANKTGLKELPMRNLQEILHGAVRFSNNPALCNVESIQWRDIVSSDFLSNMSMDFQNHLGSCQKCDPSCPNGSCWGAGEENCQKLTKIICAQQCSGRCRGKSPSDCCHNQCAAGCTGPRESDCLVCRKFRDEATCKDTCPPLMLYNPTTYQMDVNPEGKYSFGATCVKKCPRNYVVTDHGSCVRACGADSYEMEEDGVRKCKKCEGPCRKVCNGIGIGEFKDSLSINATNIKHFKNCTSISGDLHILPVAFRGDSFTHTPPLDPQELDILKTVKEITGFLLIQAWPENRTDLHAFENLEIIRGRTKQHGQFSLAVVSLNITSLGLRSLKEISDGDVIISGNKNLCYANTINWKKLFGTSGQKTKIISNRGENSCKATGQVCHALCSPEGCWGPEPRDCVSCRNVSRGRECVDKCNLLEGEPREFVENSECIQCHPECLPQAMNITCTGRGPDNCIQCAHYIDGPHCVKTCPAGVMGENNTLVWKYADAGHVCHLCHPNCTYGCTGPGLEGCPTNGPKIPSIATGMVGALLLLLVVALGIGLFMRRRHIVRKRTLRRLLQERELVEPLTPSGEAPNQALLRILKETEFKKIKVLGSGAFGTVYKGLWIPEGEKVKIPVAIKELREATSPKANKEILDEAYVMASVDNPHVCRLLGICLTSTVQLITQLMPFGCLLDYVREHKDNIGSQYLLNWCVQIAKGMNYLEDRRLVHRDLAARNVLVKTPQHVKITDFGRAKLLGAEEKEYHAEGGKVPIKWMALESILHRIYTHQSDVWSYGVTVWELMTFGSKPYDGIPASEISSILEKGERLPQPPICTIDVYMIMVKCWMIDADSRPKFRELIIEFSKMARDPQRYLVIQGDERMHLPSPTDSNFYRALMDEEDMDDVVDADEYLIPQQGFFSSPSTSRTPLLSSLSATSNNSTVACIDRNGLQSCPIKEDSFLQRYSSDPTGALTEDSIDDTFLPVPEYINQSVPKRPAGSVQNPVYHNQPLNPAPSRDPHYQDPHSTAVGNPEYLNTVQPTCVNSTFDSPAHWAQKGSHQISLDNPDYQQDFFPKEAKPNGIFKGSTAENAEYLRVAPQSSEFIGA

Row | SMILES | IC50 [1] [nM] | IC50 [2] [nM] | IC50 [3] [nM]
1 | C[C@@H](CN(C)C)Oc1cc(-c2cnn(C)c2)cc2ncnc(Nc3ccc4ncsc4c3)c12 (single isomer, unassigned) [Example 160, (R)—N-(5-((1-(dimethylamino)propan-2-yl)oxy)-7-(1-methyl-1H-pyrazol-4-yl)quinazolin-4-yl)benzo[d]thiazol-6-amine or (S)—N-(5-((1-(dimethylamino)propan-2-yl)oxy)-7-(1-methyl-1H-pyrazol-4-yl)quinazolin-4-yl)benzo[d]thiazol-6-amine] | ≤ 10 | ≤ 10 | ≤ 10
2 | CO[C@@H]1CCN(C)C[C@H]1Oc1cc(-c2cnn(C)c2)cc2ncnc(Nc3ccc4ncsc4c3)c12 (single isomer, unassigned) [Example A39] | 10.1 to 50 | ≤ 10 | > 50.1
3 | CN1CC[C@H](Oc2cc(-c3cnn(C)c3)cc3ncnc(Nc4ccc5ncsc5c4)c23)C[C@@H]1CO [Example A08, [(2R,4S)-4-({4-[(1,3-benzothiazol-6-yl)amino]-7-(1-methyl-1H-pyrazol-4-yl)quinazolin-5-yl}oxy)-1-methylpiperidin-2-yl]methanol] | ≤ 10 | ≤ 10 | 10.1 to 50
4 | COc1nn(C)cc1-c1cc(O[C@H]2CN(C)C[C@@H]2F)c2c(Nc3ccc4ncsc4c3)ncnc2c1 (single isomer, unassigned) [Example 377] | 10.1 to 50 | 10.1 to 50 | 10.1 to 50
5 | COC[C@H](C)Oc1cc(N2CCN(C(C)C)C2=O)cc2ncnc(Nc3ccc4ncsc4c3)c12 (single isomer, unassigned) [Example 118] | ≤ 10 | ≤ 10 | ≤ 10
6 | CC(C)(O)Cn1cc(-c2cc(OC3CCOCC3)c3c(Nc4ccc5ncsc5c4)ncnc3c2)cn1 [Example 190, 1-(4-(4-(benzo[d]thiazol-6-ylamino)-5-((tetrahydro-2H-pyran-4-yl)oxy)quinazolin-7-yl)-1H-pyrazol-1-yl)-2-methylpropan-2-ol] | ≤ 10 | ≤ 10 | ≤ 10
7 | CN1CCC(COc2cc(-c3cnn(C)c3)cc3ncnc(Nc4ccc5ncsc5c4)c23)C1=O (stereo not drawn) [Example 61, 3-(((4-(benzo[d]thiazol-6-ylamino)-7-(1-methyl-1H-pyrazol-4-yl)quinazolin-5-yl)oxy)methyl)-1-methylpyrrolidin-2-one] | ≤ 10 | ≤ 10 | 10.1 to 50
8 | COc1cc(O[C@H](C)C2COC2)c2c(Nc3ccc4ncsc4c3F)ncnc2c1 (single isomer, unassigned) [Example 82] | ≤ 10 | ≤ 10 | 10.1 to 50
9 | COc1cn(C)nc1-c1cc(O[C@H]2CCCN(C)C2)c2c(Nc3ccc4ncsc4c3F)ncnc2c1 [Example 246, (S)-7-fluoro-N-(7-(4-methoxy-1-methyl-1H-pyrazol-3-yl)-5-((1-methylpiperidin-3-yl)oxy)quinazolin-4-yl)benzo[d]thiazol-6-amine] | ≤ 10 | ≤ 10 | 10.1 to 50
10 | COc1cc(O[C@H](C)CN(C)C)c2c(Nc3ccc4ncsc4c3F)ncnc2c1 [Example 146, (R)-N-(5-((1-(dimethylamino)propan-2-yl)oxy)-7-methoxyquinazolin-4-yl)-7-fluorobenzo[d]thiazol-6-amine] | 10.1 to 50 | ≤ 10 | 10.1 to 50
11 | COc1nn(C)cc1-c1cc(O[C@@H]2CCN(C)C[C@H]2F)c2c(Nc3ccc4ncsc4c3)ncnc2c1 (single isomer, unassigned) [Example 358] | ≤ 10 | ≤ 10 | ≤ 10
12 | CC(C)N1CC[C@@H](Oc2cc(-c3cnn(C)c3)cc3ncnc(Nc4ccc5ncsc5c4)c23)C1=O (single isomer, unassigned) [Example 64] | ≤ 10 | ≤ 10 | 10.1 to 50
13 | C[C@@H]1CN(C)CCN1c1cc(O[C@H](C)C2COC2)c2c(Nc3ccc4ncsc4c3F)ncnc2c1 (single isomer, unassigned) [Example 107, N-(7-((R)-2,4-dimethylpiperazin-1-yl)-5-((R)-1-(oxetan-3-yl)ethoxy)quinazolin-4-yl)-7-fluorobenzo[d]thiazol-6-amine or N-(7-((R)-2,4-dimethylpiperazin-1-yl)-5-((S)-1-(oxetan-3-yl)ethoxy)quinazolin-4-yl)-7-fluorobenzo[d]thiazol-6-amine] | 10.1 to 50 | ≤ 10 | 10.1 to 50
14 | CO[C@H]1COC[C@@H]1Oc1cc(-c2cnn(C)c2)cc2ncnc(Nc3ccc4ncsc4c3)c12 (single isomer, unassigned) [Example A31] | ≤ 10 | ≤ 10 | 10.1 to 50
15 | Cn1cc(-c2cc(OC3COCOC3)c3c(Nc4ccc5ncsc5c4)ncnc3c2)cn1 [Example A59, N-(5-((1,3-dioxan-5-yl)oxy)-7-(1-methyl-1H-pyrazol-4-yl)quinazolin-4-yl)benzo[d]thiazol-6-amine] | ≤ 10 | ≤ 10 | 10.1 to 50
16 | CN(C)[C@H]1CC[C@H]1Oc1cc(-c2cnn(C)c2)cc2ncnc(Nc3ccc4ncsc4c3)c12 (racemic) [Example A50, N-(5-((1R,2S)-2-(dimethylamino)cyclobutoxy)-7-(1-methyl-1H-pyrazol-4-yl)quinazolin-4-yl)benzo[d]thiazol-6-amine] | ≤ 10 | ≤ 10 | ≤ 10
17 | C[C@@H](CN(C)C)Oc1cc(N2CCN(C)CC2)cc2ncnc(Nc3ccc4ncsc4c3)c12 (single isomer, unassigned) [Example 117] | 10.1 to 50 | 10.1 to 50 | 10.1 to 50
18 | C[C@@H]1CNCCN1c1cc(O[C@H](C)C2COC2)c2c(Nc3ccc4ncsc4c3F)ncnc2c1 (single isomer, unassigned) [Example 105] | 10.1 to 50 | ≤ 10 | 10.1 to 50
19 | COc1nn(C)cc1-c1cc(O[C@@H]2CCN(C)C[C@H]2F)c2c(Nc3ccc4ncsc4c3)ncnc2c1 (single isomer, unassigned) [Example 359] | ≤ 10 | ≤ 10 | 10.1 to 50
20 | C[C@@H](Oc1cc(N2CC3CC(C2)O3)cc2ncnc(Nc3ccc4ncsc4c3)c12)C1COC1 [Example 129, N-(7-(6-oxa-3-azabicyclo[3.1.1]heptan-3-yl)-5-((R)-1-(oxetan-3-yl)ethoxy)quinazolin-4-yl)benzo[d]thiazol-6-amine] | ≤ 10 | ≤ 10 | ≤ 10
21 | C[C@@H](Oc1cc(N2CC3CC(C2)O3)cc2ncnc(Nc3ccc4ncsc4c3F)c12)C1COC1 [Example 180, N-(7-(6-oxa-3-azabicyclo[3.1.1]heptan-3-yl)-5-((R)-1-(oxetan-3-yl)ethoxy)quinazolin-4-yl)-7-fluorobenzo[d]thiazol-6-amine] | ≤ 10 | ≤ 10 | ≤ 10
22 | C[C@@H](Oc1cc(-c2cnn(C)c2)cc2ncnc(Nc3ccc4ncsc4c3F)c12)C1(C)COC1 (single isomer, unassigned) [Example 86] | ≤ 10 | ≤ 10 | ≤ 10
23 | Cn1cc(-c2cc(OC[C@]34COC[C@H]3C4)c3c(Nc4ccc5ncsc5c4)ncnc3c2)cn1 (single isomer, unassigned) [Example 147] | 10.1 to 50 | ≤ 10 | 10.1 to 50
